Assay results reported in patent publication US10154957B2, “Microneedle device having a peptide therapeutic agent and an amino acid and methods of making and using the same” (3M INNOVATIVE PROPERTIES COMPANY, priority 2011, dated 2018).
Marks after values point to notes of the source that are not given here.

Assay: Percent purity of PTHrP analogue in coating with varying His-HCl concentration, three storage conditions (HPLC)
Format: physicochemical
Conditions: peptide 10 mg/mL in PBS
Procedure: The protein or polypeptide content in the formulation coated on the microneedle arrays was determined using an Agilent 1100 HPLC system (Agilent Technologies, Wilmington, Del.) equipped with a binary pump, well-plated thermostated autosampler, thermostated column compartment, and a diode array UV detector. A Zorbax 300SB-C8 column (Agilent Technologies, Wilmington, Del.) having a 5 μm particle size and 2.1×150 mm inner diameter was used for the separations. The column was maintained at 50° C. The mobile phase consisted of two eluents. Eluent A was 0.1% TFA (trifluoroacetic acid) in water and eluent B was 0.1% TFA in acetonitrile (Spectrum Chemical, New Brunswick, N.J.). A linear gradient from 80/20 to 50/50 (A/B) was applied over 30 minutes. The flow rate was 0.4 mL/minute and the UV detection wavelength was set at 214 nm. The total run time was 34 minutes and the sample injection volume was 15 μL.
Five sample formulations were prepared containing 10 mg/mL of [Glu^22,25,Leu^23,28,31,Aib^29,Lys^26,30]hPTHrP(1-34)NH2 and varying concentrations of L-histidine monohydrochloride (His-HCl) in PBS. The concentrations of His-HCl in the sample formulations range from 1 mg/mL to 10 mg/mL. A control formulation was also prepared containing 10 mg/mL of [Glu^22,25,Leu^23,28,31,Aib^29,Lys^26,30]hPTHrP(1-34)NH2 in PBS. […] Microneedle arrays were coated with either the sample or the control formulations. The coating was applied by dropwise addition of 40 μL of the formulation to the portion of the array defined by the octagon shaped pattern of microneedles. The flood coated arrays (both sample and control formulation coated) were dried in an oven at 35° C. for 1.5 hours followed by 30° C. for 15 hours.
After drying, the coated arrays were placed in a storage chamber that was maintained at one of three storage conditions: 40° C./96% RH (storage condition A); 25° C./60% RH (storage condition B); or 5° C./ambient RH. The [Glu^22,25,Leu^23,28,31,Aib^29,Lys^26,30]hPTHrP(1-34)NH2 content of the coated arrays was determined following storage in a chamber for 1 day, 3 days, 7 days, 14 days, 21 days, 28 days, and 2 months. The initial [Glu^22,25,Leu^23,28,31,Aib^29,Lys^26,30]hPTHrP(1-34)NH2 content was also determined using freshly coated arrays (both sample and control formulation coated). The arrays used to determine initial content were stored in a refrigerator at about 4° C. and analyzed within one day of being prepared. At the designated time point, an array was taken from the chamber and washed with PBS (3.5 mL) to remove the coating from the array. An aliquot of the resulting wash solution was analyzed for [Glu^22,25,Leu^23,28,31,Aib^29,Lys^26,30]hPTHrP(1-34)NH2 content using the HPLC method described above. The results were quantified against an external standard of [Glu^22,25,Leu^23,28,31,Aib^29,Lys^26,30]hPTHrP(1-34)NH2. At each time point, the percent purity of [Glu^22,25,Leu^23,28,31,Aib^29,Lys^26,30]hPTHrP(1-34)NH2 in the coating was determined by measuring the peak area for [Glu^22,25,Leu^23,28,31,Aib^29,Lys^26,30]hPTHrP(1-34)NH2 in the selected coating and dividing it by the total peak area measured for all [Glu^22,25,Leu^23,28,31,Aib^29,Lys^26,30]hPTHrP(1-34)NH2 related peaks.

For “[Glu^22,25,Leu^23,28,31,Aib^29,Lys^26,30]hPTHrP(1-34)NH2”, the “Percent Purity of [Glu^22,25, Leu^23,28,31, Aib^29, Lys^26,30]hPTHrP(1-34)NH2” value (shortened to “Percent Purity”) (Histidine-HCl 3.3 mg/mL, Storage Condition B (25° C./60% RH), Initial) was 99.3%, the “Percent Purity” value (Histidine-HCl 5 mg/mL, Storage Condition A (40° C./96% RH), Day 1) was 98.7% and the “Percent Purity” value (Histidine-HCl 5 mg/mL, Storage Condition A (40° C./96% RH), Day 3) was 97.5%. For the same substance, the “Percent Purity” value (Histidine-HCl 5 mg/mL, Storage Condition A (40° C./96% RH), Day 7) was 92.0%, the “Percent Purity” value (Histidine-HCl 5 mg/mL, Storage Condition A (40° C./96% RH), Day 14) was 65.1% and the “Percent Purity” value (Histidine-HCl 5 mg/mL, Storage Condition A (40° C./96% RH), Day 21, the sample for analysis contained insoluble impurities) was 33.8^(a) percent. For the same substance, the “Percent Purity” value (Histidine-HCl 5 mg/mL, Storage Condition A (40° C./96% RH), Initial) was 99.0%, the “Percent Purity” value (Histidine-HCl 5 mg/mL, Storage Condition B (25° C./60% RH), 2 months) was 98.4% and the “Percent Purity” value (Histidine-HCl 5 mg/mL, Storage Condition B (25° C./60% RH), Day 3) was 98.9%. For the same substance, the “Percent Purity” value (Histidine-HCl 5 mg/mL, Storage Condition B (25° C./60% RH), Day 7) was 98.9%, the “Percent Purity” value (Histidine-HCl 5 mg/mL, Storage Condition B (25° C./60% RH), Day 14) was 98.9% and the “Percent Purity” value (Histidine-HCl 5 mg/mL, Storage Condition B (25° C./60% RH), Day 28) was 98.8%. The “Percent Purity” value (Histidine-HCl 5 mg/mL, Storage Condition B (25° C./60% RH), Initial) was 99.0%, the “Percent Purity” value (Histidine-HCl 10 mg/mL, Storage Condition A (40° C./96% RH), Day 1) was 98.7% and the “Percent Purity” value (Histidine-HCl 10 mg/mL, Storage Condition A (40° C./96% RH), Day 3) was 98.5%. The “Percent Purity” value (Histidine-HCl 10 mg/mL, Storage Condition A (40° C./96% RH), Day 7) was 97.7%, the “Percent Purity” value (Histidine-HCl 10 mg/mL, Storage Condition A (40° C./96% RH), Day 14) was 94.9% and the “Percent Purity” value (Histidine-HCl 10 mg/mL, Storage Condition A (40° C./96% RH), Day 21) was 80.8%. For the same substance, the “Percent Purity” value (Histidine-HCl 10 mg/mL, Storage Condition A (40° C./96% RH), Initial) was 99.0%, the “Percent Purity” value (Histidine-HCl 10 mg/mL, Storage Condition B (25° C./60% RH), Day 3) was 98.9% and the “Percent Purity” value (Histidine-HCl 10 mg/mL, Storage Condition B (25° C./60% RH), Day 7) was 98.9%. For the same substance, the “Percent Purity” value (Histidine-HCl 10 mg/mL, Storage Condition B (25° C./60% RH), Day 14) was 98.8%, the “Percent Purity” value (Histidine-HCl 10 mg/mL, Storage Condition B (25° C./60% RH), Initial) was 99.0% and the “Percent Purity” value (Histidine-HCl none, Storage Condition B (25° C./60% RH), 2 months) was 96.3%. For the same substance, the “Percent Purity” value (Histidine-HCl none, Storage Condition B (25° C./60% RH), Day 3) was 97.9%, the “Percent Purity” value (Histidine-HCl none, Storage Condition B (25° C./60% RH), Day 7) was 98.0% and the “Percent Purity” value (Histidine-HCl none, Storage Condition B (25° C./60% RH), Day 14) was 97.7%. For the same substance, the “Percent Purity” value (Histidine-HCl none, Storage Condition B (25° C./60% RH), Day 28) was 97.5% and the “Percent Purity” value (Histidine-HCl none, Storage Condition B (25° C./60% RH), Initial) was 98.7%.
